Assay [1] addresses T1, EphB2 kinase domain (Homo sapiens, UniProt P29323).
T1 sequence (P29323 621-884 limits assumed): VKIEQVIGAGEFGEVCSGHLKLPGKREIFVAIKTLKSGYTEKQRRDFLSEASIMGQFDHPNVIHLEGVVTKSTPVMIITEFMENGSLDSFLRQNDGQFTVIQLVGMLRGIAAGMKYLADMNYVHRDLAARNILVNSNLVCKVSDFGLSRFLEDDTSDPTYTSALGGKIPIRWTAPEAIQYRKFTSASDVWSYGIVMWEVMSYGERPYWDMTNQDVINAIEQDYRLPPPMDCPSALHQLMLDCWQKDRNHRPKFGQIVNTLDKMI
Briefly: Radiometric protein kinase assay (33PanQinase Activity Assay), EphB2.
Description: (§2) Kinase domains were produced by ProQinase using human cDNAs to express recombinant GST/His-fusion proteins that were purified by affinity chromatography and determined to be enzymatically active by phosphorylation of a Poly (Glu, Tyr) substrate. The FDA compounds were assayed in 10 concentrations in the range from 1×10^−4 M to 3×10^−9 M for their ability to effect kinase activities. The final DMSO concentration in the reaction cocktails was 1% in all cases. Kinase assays were performed in 96-well FlashPlates™ from PerkinElmer (Boston, Mass., USA) in a 50 μl reaction volume. The reaction cocktail was pipetted in four steps in the following order: 20 μl of assay buffer (standard buffer), 5 μl of ATP solution (in H2O), 5 μl of test compound (in 10% DMSO), and 20 μl enzyme/substrate mix. […] The reaction cocktails were incubated at 30° C. for 60 minutes. The reaction was stopped with 50 μl of 2% (v/v) H3PO4, plates were aspirated and washed two times with 200 μl 0.9% (w/v) NaCl. Incorporation of ^33Pi was determined with a microplate scintillation counter (Microbeta, Wallac). All assays were performed with a BeckmanCoulter/SAGIAN™ Core System. The median value of the counts in column 1 (n=8) of each assay plate was defined as “low control”. This value reflects unspecific binding of radioactivity to the plate in the absence of a protein kinase but in the presence of the substrate. […] The residual activity (in %) for each well of a particular plate was calculated by using the following formula: Res. Activity (%)=100×[(cpm of compound−low control)/(high control−low control)] […]
(§3) For each kinase, the median value of the cpm of three wells with complete reaction cocktails, but without kinase, was defined as “low control” (n=3). This value reflects unspecific binding of radioactivity to the plate in the absence of protein kinase but in the presence of the substrate. […] The residual activity (in %) for each well of each row of a particular plate was calculated by using the following formula: Res. Activity (%)=100×[(cpm of compound−low control)/(high control−low control)]. […]

The subject of assay [2] is Capsaicin Induced pain model. Briefly: Capsaicin Induced pain model (Hargreaves and Von Frey tests). Conditions: capsaicin-injected paw vs controls; Demeclocycline 17 mg/kg/day, DC 7 mg/kg/day, MCD 5 mg/kg/day, p.o. Type of assay: in vivo, CD1 mice. On the procedure:
(§1) Animals. A total of 40 male outbred CD1 mice were obtained from Charles River Laboratories at 8 weeks of age. Mice were housed in the animal facility of UT southwestern Medical Center, with constant temperature (21-24° C.) and humidity (30-50%) with free access to standard animal feed and water. The room was kept on a 12/12 light/dark cycle, with white light (light cycle) on at 2400 hours and red lights (dark cycle) on at 1200 hours. All of the procedures were conducted with approval from the UT southwestern Medical Center Institutional Animal Care and Use Committee (IACUC Protocol No. 2017-102090). Ugo Basile® the original Plantar Test (Hargreaves Apparatus) was used for thermal stimulation, where infrared beam was adjusted to give an average paw withdrawal latency of about 10 s in wild type mice and cut-off time was set to 30 s to avoid tissue damage. Ugo Basile® Dynamic Plantar Aesthesiometer (DPA) for mechanical stimulation (Electronic Von Frey) were used for mechanical stimulation, where the force (grams) was set at 50 g to prevent tissue damage. Animals were placed in clear acrylic cubicles (22×16.5×14 cm) for at least one hour prior testing. The testing/recording was done every 5 minutes with no repetition for the same mouse. Blinded person(s) to the individual treatment assignments recorded true reflexes.
Capsaicin Induced pain model. […]

Assay [3] concerns Complete freund's adjuvant (CFA) Induced pain model. Nature of the assay: Complete freund's adjuvant (CFA) Induced pain model (Hargreaves and Von Frey tests). The class given is in vivo, CD1 mice. On the procedure:
as §1
Complete freund's adjuvant (CFA) Induced pain model. […] A baseline was for detected for the mice behavior towards thermal hyperalgesia using Hargreaves Test and mechanical allodynia using Von Frey Test. The drugs were administered via gavage for three consecutive days before CFA injection. On the morning of the experiment (6 hours before CFA injection), the last dose of drugs was administered. CFA was injected in the right paw, while the left paw remained un-injected as control. The testing involved two stimulus thermal hyperalgesia using Hargreaves Test and mechanical allodynia using Von Frey Test at Days 1, 2, 3, and 5.

Assay [4] deals with Human glioblastoma (GBM) cells. Briefly: Glioblastoma cell migration. The class given is cell-based. Conditions: 12.5, 25, 50, and 100 μM; after 24 hours. How it is done: Cell migration was tested after 24 hours.
Assay [5] has as its target T2, EphB1 kinase domain (Homo sapiens, UniProt P54762).
T2 sequence (P54762 619-882 limits assumed): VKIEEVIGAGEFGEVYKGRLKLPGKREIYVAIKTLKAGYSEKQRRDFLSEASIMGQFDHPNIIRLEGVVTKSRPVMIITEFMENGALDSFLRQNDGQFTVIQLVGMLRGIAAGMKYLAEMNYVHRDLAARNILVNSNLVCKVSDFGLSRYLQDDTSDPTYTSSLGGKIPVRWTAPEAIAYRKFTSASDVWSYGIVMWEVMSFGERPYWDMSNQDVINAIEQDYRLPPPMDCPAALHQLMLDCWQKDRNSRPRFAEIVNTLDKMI
Briefly: Radiometric protein kinase assay (33PanQinase Activity Assay), EphB1. The note with it: for inhibition of EphB1 kinase activity: concentrations up to 100 μM.
Description: (§4) Kinase domains were produced by ProQinase using human cDNAs to express recombinant GST/His-fusion proteins that were purified by affinity chromatography and determined to be enzymatically active by phosphorylation of a Poly (Glu, Tyr) substrate. The FDA compounds were assayed in 10 concentrations in the range from 1×10^−4 M to 3×10^−9 M for their ability to effect kinase activities. The final DMSO concentration in the reaction cocktails was 1% in all cases. Kinase assays were performed in 96-well FlashPlates™ from PerkinElmer (Boston, Mass., USA) in a 50 μl reaction volume. The reaction cocktail was pipetted in four steps in the following order: 20 μl of assay buffer (standard buffer), 5 μl of ATP solution (in H2O), 5 μl of test compound (in 10% DMSO), and 20 μl enzyme/substrate mix. […] The reaction cocktails were incubated at 30° C. for 60 minutes. The reaction was stopped with 50 μl of 2% (v/v) H3PO4, plates were aspirated and washed two times with 200 μl 0.9% (w/v) NaCl. Incorporation of ^33Pi was determined with a microplate scintillation counter (Microbeta, Wallac). All assays were performed with a BeckmanCoulter/SAGIAN™ Core System. The median value of the counts in column 1 (n=8) of each assay plate was defined as “low control”. This value reflects unspecific binding of radioactivity to the plate in the absence of a protein kinase but in the presence of the substrate. The median value of the counts in column 7 of each assay plate (n=8) was taken as the “high control”, i.e. full activity in the absence of any inhibitor. The difference between high and low control was taken as 100% activity. As part of the data evaluation the low control value from a particular plate was subtracted from the high control value as well as from all 80 “compound values” of the corresponding plate. The residual activity (in %) for each well of a particular plate was calculated by using the following formula: Res. Activity (%)=100×[(cpm of compound−low control)/(high control−low control)]
(§5) The fitting method used was a least-squares fit.
For each kinase, the median value of the cpm of three wells with complete reaction cocktails, but without kinase, was defined as “low control” (n=3). This value reflects unspecific binding of radioactivity to the plate in the absence of protein kinase but in the presence of the substrate. Additionally, for each kinase the median value of the cpm of three other wells with the complete reaction cocktail, but without any compound, was taken as the “high control”, i.e. full activity in the absence of any inhibitor (n=3). The difference between high and low control was taken as 100% activity for each kinase. As part of the data evaluation the low control of each row of a particular plate was subtracted from the high control value as well as from their corresponding “compound values”. The residual activity (in %) for each well of each row of a particular plate was calculated by using the following formula: Res. Activity (%)=100×[(cpm of compound−low control)/(high control−low control)]. […] The mathematical model used was “Sigmoidal response (variable slope)” with parameters “top” fixed at 100% and “bottom” at 0%.

The target of assay [6] is T3, EphB3 kinase domain (Homo sapiens, UniProt P54753).
T3 sequence (P54753 633-896 limits assumed): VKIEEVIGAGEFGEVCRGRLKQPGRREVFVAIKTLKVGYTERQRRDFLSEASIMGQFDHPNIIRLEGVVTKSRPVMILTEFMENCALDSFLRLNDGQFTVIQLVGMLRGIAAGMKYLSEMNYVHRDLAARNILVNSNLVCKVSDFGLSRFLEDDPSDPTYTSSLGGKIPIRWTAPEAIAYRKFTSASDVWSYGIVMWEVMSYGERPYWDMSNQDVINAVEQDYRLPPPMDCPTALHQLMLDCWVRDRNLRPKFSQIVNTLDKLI
Nature of the assay: Radiometric protein kinase assay (33PanQinase Activity Assay), EphB3.
Description: as §4, §5
For each kinase, the median value of the cpm of three wells with complete reaction cocktails, but without kinase, was defined as “low control” (n=3). This value reflects unspecific binding of radioactivity to the plate in the absence of protein kinase but in the presence of the substrate. Additionally, for each kinase the median value of the cpm of three other wells with the complete reaction cocktail, but without any compound, was taken as the “high control”, i.e. full activity in the absence of any inhibitor (n=3). […] The residual activity (in %) for each well of each row of a particular plate was calculated by using the following formula: Res. Activity (%)=100×[(cpm of compound−low control)/(high control−low control)]. […]

Assay [7] deals with T4, EphB4 kinase domain (Homo sapiens, UniProt P54760).
T4 sequence (P54760 615-899 limits assumed): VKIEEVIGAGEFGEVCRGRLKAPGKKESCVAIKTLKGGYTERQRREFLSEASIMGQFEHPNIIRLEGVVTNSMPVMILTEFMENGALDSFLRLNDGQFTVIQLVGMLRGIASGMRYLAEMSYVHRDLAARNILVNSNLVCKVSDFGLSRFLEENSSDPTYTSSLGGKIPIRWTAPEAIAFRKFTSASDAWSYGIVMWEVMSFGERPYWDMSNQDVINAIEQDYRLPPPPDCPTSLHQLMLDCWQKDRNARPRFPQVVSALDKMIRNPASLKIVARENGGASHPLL
Nature of the assay: Radiometric protein kinase assay (33PanQinase Activity Assay), EphB4.
Description: as §2, §3

The mark [8] stands for this setting: tested at Days 1, 2, 3, and 5, P<0.001.

In general, IC50 refers to the concentration that inhibits the measured activity by half. A lower IC50 goes with higher potency. With `CN(C)[C@@H]1C(O)=C(C(N)=O)C(=O)[C@@]2(O)C(O)=C3C(=O)c4c(O)ccc(Cl)c4[C@@H](O)[C@H]3C[C@@H]12` [Demeclocycline, demeclocycline], the IC50 in assay [1] is 37 to 92 µM; in assay [5] it was 39 µM; in assay [6], 47 µM; in assay [7], 37 to 92 µM. The “paw withdrawal latency, thermal stimulus (Hargreaves)” value is given as “prolonged the paw withdrawal latency” in assay [2] and “prolonged the paw withdrawal latency” in assay [3] (injected paw vs controls, p.o). For the same compound, the “response to mechanical stimulus (von Frey)” value in assay [2] is “same behavior was observed”; in assay [3] (injected paw vs controls, p.o), “same behavior was observed”. For the same compound, the “time until which significant improvement for mechanical (tactile) allodynia was shown” value in assay [3] (setting [8]) was determined as 1 days. For the same compound, in assay [3] (setting [8]), the “time until which significant improvement in paw withdrawal latency for thermal hyperalgesia was shown” value is not above 2 days. In addition, in assay [4], the glioblastoma cell migration entry was “inhibited glioblastoma cell migration”. Also, the “influence on EphB3 catalytic activity” value in assay [6] (low nanomolar ranges (biphasic)) is listed as “slightly elevated activity”.

Take `CN(C)[C@@H]1C(O)=C(C(N)=O)C(=O)[C@@]2(O)C(O)=C3C(=O)c4c(O)ccc(Cl)c4[C@@](C)(O)[C@H]3C[C@@H]12` [chlortetracycline]: the concentration for half-maximal inhibition (IC50) in assay [1] was 37 to 92 µM; in assay [5], 44 µM; in assay [6] it was 55 µM; in assay [7] it was 37 to 92 µM.

Regarding `NC(=O)C(c1ccccc1)(c1ccccc1)[C@@H]1CCN(CCc2ccc3c(c2)CCO3)C1` [darifenacin], the “inhibition of EphB1 kinase activity” value in assay [5] is listed as “failed to inhibit”.

For `CN(C)c1ccc(O)c2c1C[C@H]1C[C@H]3[C@H](N(C)C)C(O)=C(C(N)=O)C(=O)[C@@]3(O)C(O)=C1C2=O` [minocycline], the IC50 in assay [1] is 37 to 92 µM; in assay [5] it was 56 µM; in assay [6] it was 92 µM; in assay [7], 37 to 92 µM.

Turning to `CCC(=O)NCC[C@@H]1CCc2ccc3c(c21)CCO3` [ramelteon], in assay [5], the “inhibition of EphB1 kinase activity” value is reported as “failed to inhibit”.

These data come from patent US20220347194A1, “METHODS AND COMPOSITIONS FOR TREATING PAIN AND OTHER EPH RECEPTOR-ASSOCIATED CONDITIONS” (THE BOARD OF REGENTS OF THE UNIVERSITY OF TEXAS SYSTEM, priority 2019, published 2022).
